Results published in patent US9586978B2, “Anti-viral compounds” (AbbVie Inc., priority 2009, dated 2017).
Where two headings read alike, the source gives them in different places.

How the values were obtained:
[1] = system: HCV 1a replicon containing NS5A mutation Q30E; experiment: HCV 1a Q30E replicon assay; format: cell-based; settings: Hepatitis C virus, read-out: EC50 (nM) 1a Q30E
Description: (§1) Table 2 compares compounds containing unsubstituted benzimidazole to those containing halo-substituted benzimidazole. Anti-viral activities were assessed using wild-type replicons (e.g., 1b WT or 1a WT) as well as replicons containing specific NS5A mutations (e.g., 1b L28T, 1b Y93H, 1a L31V, 1a Y93C, 1a M28V, or 1a Q30E) in the absence of FBS.

[2] = system: HCV 1b replicon containing NS5A mutation Y93H; experiment: HCV 1b Y93H replicon assay; format: cell-based, Hepatitis C virus; settings: Hepatitis C virus, read-out: EC50 (nM) 1b Y93H
Description: as §1

[3] = system: HCV 1b replicon containing NS5A mutation L28T; experiment: HCV 1b L28T replicon assay; format: cell-based; settings: Hepatitis C virus, read-out: EC50 (nM) 1b L28T
Description: as §1

[4] = system: HCV 1a replicon containing NS5A mutation L31V; experiment: HCV 1a L31V replicon assay; format: cell-based, Hepatitis C virus; settings: for EC50: Hepatitis C virus, read-out: EC50 (nM) 1a L31V
Description: as §1

[5] = system: HCV 1a replicon containing NS5A mutation M28V; experiment: HCV 1a M28V replicon assay; format: cell-based; settings: Hepatitis C virus, read-out: EC50 (nM) 1a M28V
Description: as §1

[6] = system: HCV genotype 1a replicon; experiment: HCV genotype 1a replicon assay; format: cell-based, Hepatitis C virus; settings: Hepatitis C virus
Source text: (§2) [drawing 14] employs a biphenyl linker between the imidazole moieties. See WO2008021927(BMS). The EC50 values of BMS-790052 against different HCV genotypes were shown by Nettles et al., “BMS-790052 is a First-in-class Potent Hepatitis C Virus (HCV) NS5A Inhibitor for Patients with Chronic HCV Infection: Results from a Proof-of-concept Study”, 59th Annual Meeting of the American Association for the Study of Liver Diseases (Oct. 31-Nov. 1, 2008, San Francisco, Calif.; www.natap.org/2008/AASLD/AASLD_06.htm). […] See also Gao et al., NATURE 465:96-100 (2010). The compounds in Table 1 use different linkers between the imidazole moieties. Table 1 depicts the EC50 values of these compounds when tested using respective replicon assays in the presence of 5% (v/v) fetal bovine serum (FBS).
as §1
(§3) Table 3 compares compounds with different linkers between the benzimidazole moieties. Anti-viral activities were determined using 1a and 1b replicon assays. “HP” refers to human plasma. […] As compared to the phenyl linker

[7] = system: HCV 1a replicon containing NS5A mutation Y93C; experiment: HCV 1a Y93C replicon assay; format: cell-based; settings: Hepatitis C virus, read-out: EC50 (nM) 1a Y93C
Description: as §1

[8] = system: HCV genotype 1b replicon; experiment: HCV genotype 1b replicon assay; format: cell-based, Hepatitis C virus; settings: Hepatitis C virus
Source text: as §2, §1, §3

[9] = system: HCV 1b-Con1 replicon; experiment: HCV 1b-Con1 replicon assay in the presence of 5% FBS (luciferase reporter); format: cell-based; settings: Hepatitis C virus
[10] = system: HCV genotype 4a replicon; experiment: HCV genotype 4a replicon assay; format: cell-based, Hepatitis C virus; settings: Hepatitis C virus, absence of human plasma; Table 5; read-out: EC50 (nM, in the absence of HP) 4a
Source text: as §2

[11] = system: HCV 2a, 2b, 3a and 4a replicon; experiment: HCV 2a, 2b, 3a and 4a replicon assays in the absence of human plasma; format: cell-based; settings: 3a and 4a replicons
Description: The inhibitory effects of the compounds of the invention on HCV replication can be determined by measuring activity of the luciferase reporter gene. For example, replicon-containing cells can be seeded into 96 well plates at a density of 5000 cells per well in 100 μl DMEM containing 5% FBS. The following day compounds can be diluted in dimethyl sulfoxide (DMSO) to generate a 200× stock in a series of eight half-log dilutions. The dilution series can then be further diluted 100-fold in the medium containing 5% FBS. Medium with the inhibitor is added to the overnight cell culture plates already containing 100 μl of DMEM with 5% FBS. In assays measuring inhibitory activity in the presence of human plasma, the medium from the overnight cell culture plates can be replaced with DMEM containing 40% human plasma and 5% FBS. The cells can be incubated for three days in the tissue culture incubators after which time 30 μl of Passive Lysis buffer (Promega) can be added to each well, and then the plates are incubated for 15 minutes with rocking to lyse the cells. Luciferin solution (100 μl, Promega) can be added to each well, and luciferase activity can be measured with a Victor II luminometer (Perkin-Elmer). The percent inhibition of HCV RNA replication can be calculated for each compound concentration and the EC50 value can be calculated using nonlinear regression curve fitting to the 4-parameter logistic equation and GraphPad Prism 4 software.

[12] = system: HCV genotype 3a replicon; experiment: HCV genotype 3a replicon assay; format: cell-based, Hepatitis C virus; settings: Hepatitis C virus, read-out: EC50 (nM, in the absence of HP) 3a, absence of human plasma; Table 5
Source text: as §2

[13] = system: HCV genotype 2b replicon; experiment: HCV genotype 2b replicon assay; format: cell-based, Hepatitis C virus; settings: Hepatitis C virus, absence of human plasma; Table 5; read-out: EC50 (nM, in the absence of HP) 2b
Source text: as §2

[14] = system: HCV genotype 2a replicon; experiment: HCV genotype 2a replicon assay; format: cell-based, Hepatitis C virus; settings: Hepatitis C virus, absence of human plasma; Table 5; read-out: EC50 (nM, in the absence of HP) 2a
Source text: as §2

[15] = wild-type replicon, in the absence of FBS, read-out: EC50 (nM) 1a WT
[16] = wild-type replicon, in the absence of FBS, read-out: EC50 (nM) 1b WT
[17] = 40% human plasma, Table 5, read-out: EC50 (nM, in the presence of 40% HP) 1a
[18] = 40% human plasma, Table 5, read-out: EC50 (nM, in the presence of 40% HP) 1b

| Structure (SMILES) | EC50 [1] [nM] | EC50 [2] [nM] | EC50 [3] [nM] | EC50 [4] [nM] | EC50 [5] [nM] | EC50 [6, 15] [nM] | EC50 [7] [nM] | EC50 [8, 16] [nM] | EC50 [9] [nM] | further results |
| --- | --- | --- | --- | --- | --- | --- | --- | --- | --- | --- |
| COC(=O)NC(C(=O)N1CCCC1c1nc2cc(-c3ccc(-c4ccc5[nH]c([C@@H]6CCCN6C(=O)[C@@H](NC(=O)OC)C(C)C)nc5c4)cc3)ccc2[nH]1)C(C)C (some centres unmarked) | 40 | 0.9 | 2.7 | 36 | 1 | 0.09 | 40 | 0.01 | – | – |
| COC(=O)N[C@H](C(=O)N1CCC[C@H]1c1nc2cc(F)c(-c3ccc(-c4cc5[nH]c([C@@H]6CCCN6C(=O)[C@@H](NC(=O)OC)C(C)C)nc5cc4F)cc3)cc2[nH]1)C(C)C | 119 | 0.5 | 1.8 | 109 | 2.4 | 0.14 | 26 | 0.003 | – | – |
| COC(=O)N[C@H](C(=O)N1CCC[C@H]1c1nc2c(F)cc(-c3ccc(-c4cc(F)c5nc([C@@H]6CCCN6C(=O)[C@@H](NC(=O)OC)C(C)C)[nH]c5c4)cc3)cc2[nH]1)C(C)C | 59 | 2.4 | 4.3 | 5.5 | 1.8 | 0.26 | 34 | 0.004 | – | – |
| COC(=O)N[C@H](C(=O)N1CCC[C@H]1c1nc2cc(F)c(-c3ccc(-c4c(F)cc5nc([C@@H]6CCCN6C(=O)[C@@H](NC(=O)OC)C(C)C)[nH]c5c4F)cc3)c(F)c2[nH]1)C(C)C | 306 | 5.7 | > 10 | 33 | 11.6 | 0.28 | 103 | 0.005 | – | – |
| COC(=O)N[C@H](C(=O)N1CCC[C@H]1c1nc2ccc(-c3ccc(-c4ccc5nc([C@@H]6CCCN6C(=O)[C@@H](NC(=O)OC)C(C)C)[nH]c5c4F)cc3)c(F)c2[nH]1)C(C)C | 52 | 3.6 | > 10 | 80 | 5.8 | 0.1 | 141 | 0.007 | – | – |
| COC(=O)N[C@H](C(=O)N1CCCC1c1nc2c(F)cc(-c3ccc(-c4cc(F)c5nc([C@@H]6CCCN6C(=O)[C@@H](NC(=O)OC)C(C)C)[nH]c5c4)cc3)cc2[nH]1)C(C)C (some centres unmarked) | – | – | – | – | – | – | – | – | – | activity against HCV variants containing NS5A mutations (e.g., 1a L31V) ([4]; compared with unsubstituted benzimidazole reference compound of Table 2): better activity |
| COC(=O)N[C@H](C(=O)N1CCC[C@H]1c1nc2cc(C3CC[C@H](c4cc5nc([C@@H]6CCCN6C(=O)[C@@H](NC(=O)OC)C(C)C)[nH]c5cc4F)N3c3cc(F)c(N4CC(C)CC(C)C4)c(F)c3)c(F)cc2[nH]1)C(C)C (stereo partly drawn) [Example 2.16, methyl{(2S)-1-[(2S)-2-{5-[(5R)-1-[4-(3,5-dimethylpiperidin-1-yl)-3,5-difluorophenyl]-5-{6-fluoro-2-[(2S)-1-{(2S)-2-[(methoxycarbonyl)amino]-3-methylbutanoyl}pyrrolidin-2-yl]-1H-benzimidazol-5-yl}pyrrolidin-2-yl]-6-fluoro-1H-benzimidazol-2-yl}pyrrolidin-1-yl]-3-methyl-1-oxobutan-2-yl}carbamate] | – | – | – | – | – | – | – | – | < 0.1 | – |
| CC(C)(C)OC(=O)NCC(=O)N1CCC[C@H]1c1nc2cc([C@@H]3CC[C@@H](c4ccc5[nH]c([C@@H]6CCCN6C(=O)CNC(=O)OC(C)(C)C)nc5c4)N3c3ccc(N4CCCCC4)c(F)c3)ccc2[nH]1 [Example 3.14, tert-butyl {2-[(2S)-2-(5-{(2S,5S)-5-{2-[(2S)-1-{[(tert-butoxycarbonyl)amino]acetyl}pyrrolidin-2-yl]-1H-benzimidazol-5-yl}-1-[3-fluoro-4-(piperidin-1-yl)phenyl]pyrrolidin-2-yl}-1H-benzimidazol-2-yl)pyrrolidin-1-yl]-2-oxoethyl}carbamate] | – | – | – | – | – | – | – | – | > 10000 | – |
| COC(=O)N[C@H](C(=O)N1CCC[C@H]1c1nc2cc([C@H]3CC[C@H](c4ccc5[nH]c([C@@H]6CCCN6C(=O)[C@@H](NC(=O)OC)C(C)C)nc5c4)N3c3ccc(N4CCC(c5ccccc5)CC4)c(F)c3)ccc2[nH]1)C(C)C [Example 3.20, methyl{(2S)-1-[(2S)-2-{5-[(2R,5R)-1-[3-fluoro-4-(4-phenylpiperidin-1-yl)phenyl]-5-{2-[(2S)-1-{(2S)-2-[(methoxycarbonyl)amino]-3-methylbutanoyl}pyrrolidin-2-yl]-1H-benzimidazol-5-yl}pyrrolidin-2-yl]-1H-benzimidazol-2-yl}pyrrolidin-1-yl]-3-methyl-1-oxobutan-2-yl}carbamate] | – | – | – | – | – | – | – | – | – | EC50 [10]: ≤ 0.05 nM; EC50 values, fold less than those of Example 4.25 ([11]; absence of HP, versus Example 4.25): at least 15 fold; EC50 [6, 17]: 0.5 nM; EC50 [12]: ≤ 0.05 nM; EC50 [13]: ≤ 0.05 nM; EC50 [8, 18]: 0.6 nM; EC50 [14]: ≤ 0.05 nM |
| COC(=O)N[C@H](C(=O)N1C(c2nc3cc([C@H]4CCC(c5ccc6[nH]c([C@@H]7C[C@@H]8CCC[C@@H]8N7C(=O)[C@@H](NC(=O)OC)C(C)C)nc6c5)N4c4cc(F)c(N5CCCCC5)c(F)c4)ccc3[nH]2)C[C@@H]2CCC[C@@H]21)C(C)C (some centres unmarked) [Example 4.18] | – | – | – | – | – | – | – | – | < 0.1 | – |
| COC(=O)N[C@H](C(=O)N1C(c2nc3cc([C@H]4CC[C@H](c5ccc6[nH]c([C@@H]7C[C@@H]8CCC[C@@H]8N7C(=O)[C@@H](NC(=O)OC)C(C)C)nc6c5)N4c4ccc(C(C)(C)C)cc4)ccc3[nH]2)C[C@@H]2CCC[C@@H]21)C(C)C (stereo partly drawn) [Example 4.19, methyl{(2S)-1-[(2S,3aS,6aS)-2-{5-[(2R,5R)-1-(4-tert-butylphenyl)-5-{2-[(3aS,6aS)-1-{(2S)-2-[(methoxycarbonyl)amino]-3-methylbutanoyl}octahydrocyclopenta[b]pyrrol-2-yl]-1H-benzimidazol-5-yl}pyrrolidin-2-yl]-1H-benzimidazol-2-yl}hexahydrocyclopenta[b]pyrrol-1(2H)-yl]-3-methyl-1-oxobutan-2-yl}carbamate] | – | – | – | – | – | – | – | – | < 0.1 | – |
| COC(=O)N[C@H](C(=O)N1CCC[C@H]1c1nc2cc([C@H]3CC[C@H](c4ccc5[nH]c([C@@H]6CCCN6C(=O)[C@@H](NC(=O)OC)C(C)C)nc5c4)N3c3ccc(N4CCC(c5ccccc5)CC4)cc3)ccc2[nH]1)C(C)C [Example 4.25] | – | – | – | – | – | – | – | – | – | EC50 [10]: 0.2 nM; EC50 ([11]; Hepatitis C virus, absence of human plasma): 0.2 to 0.5 nM; EC50 [6, 17]: 1.5 nM; EC50 [12]: 0.5 nM; EC50 [13]: 0.5 nM; EC50 [8, 18]: 1.5 nM; EC50 [14]: 0.5 nM |
